# Assay: Fluorescence excitation and emission spectra
# Assay type: physicochemical
# Procedure: Fluorescence excitation and emission spectra were measured either using Hitachi F-4500 Fluorescence Spectrophotometer in ratio mode with a rhodamine B quantum counter. For fluorescence polarization experiments, two different detection instruments were used, a BMG Polarstar and an LJL Analyst. Molecular brightness measurements in 96-well and 384-well microtiter plates were performed in the following four instruments: (1) the LJL analyst, (2) the Tecan Ultra, (3) the PerSeptive and, (4) Chromagen's own photon counting instrument as described in U.S. patent application Ser. No. 09/552/803 and its continuation in part.
Compound,fluorescence λ em (H2O),fluorescence λ ex (H2O),fluorescence λ em (MeOH/H2O),fluorescence λ ex (MeOH/H2O),also measured
"Nc1cc(O)c2ccc3c(S(=O)(=O)O)cc(S(=O)(=O)O)c4ccc1c2c43 [compound 3, 1-Amino-3-hydroxy-6,8-disulfonate-pyrene]",492 nm,450 nm,–,–,–
CN(C)S(=O)(=O)c1cc(O)c2ccc3c(S(=O)(=O)N(C)CCCN=C=S)cc(S(=O)(=O)N(C)C)c4ccc1c2c43 [compound 16],–,–,548 nm,490 nm,–
"NCCCC(=O)c1cc(O)c2ccc3c(S(=O)(=O)O)cc(S(=O)(=O)O)c4ccc1c2c34 [compound 7, 3-Hydroxy, 6,8-disulfonate-aminoethylacetyl-pyrene]",–,–,502 nm,450 nm,–
"1-Hydroxy-3,6-dimethylsulfonamido-8-sulfonate-pyrene [compound 14]",–,–,545 nm,490 nm,–
"COC(=O)CCC(=O)Nc1cc(O)c2ccc3c(S(=O)(=O)O)cc(S(=O)(=O)O)c4ccc1c2c34 [compound 4, 3-Hydroxy-6,8-disulfonate-methylsuccinylamino-pyrene]",492 nm,450 nm,–,–,–
"3-Hydroxy-6,8-disulfonate-(4′-succinylamino-6′-isothiocyanyl-hexyl)-pyrene [compound 6]",503 nm,450 nm,–,–,–
"3-Hydroxy-6,8-disulfonate-(4′-succinyl-6′-aminohexyl)-pyrene [compound 5]",505 nm,450 nm,–,–,–
"CN(C)S(=O)(=O)c1cc(O)c2ccc3c(S(=O)(=O)N(C)CCCN)cc(S(=O)(=O)N(C)C)c4ccc1c2c43 [compound 15, 1-Hydroxy-3,6-di-(dimethylsulfonamido)-8-(3-aminopropyl-methyl-sulfonamido)-pyrene]",–,–,548 nm,490 nm,–
"CN(C)S(=O)(=O)c1cc(O)c2ccc3c(S(=O)(=O)Nc4ccc(CCCC(=O)ON5C(=O)CCC5=O)cc4)cc(S(=O)(=O)N(C)C)c4ccc1c2c34 [compound 17, 1-Hydroxy-3,6-di(dimethylsulfonamido)-8-(4′-succinimidylbutyrate)-phenylsulfonamido-pyrene]",–,–,–,–,fluorescence λ em (DMSO/Phosphate buffer): 553 nm; fluorescence λ ex (DMSO/Phosphate buffer): 510 nm

# Reference: patent US7667048B2, “Green and orange fluorescent labels and their uses” (Aries Associates, Inc., priority 2002, dated 2010)
